Experiments:
MMP-2 = target: T1, MMP-2 (Homo sapiens, UniProt P08253); experiment: Surface plasmon resonance (SPR), immobilized MMP-2; assay type: binding; conditions: NTA chip, peptides 500 µM to 3.90 µM, pH 7.4
T1 construct: ProSpec Bio; Antibodies-Online; Elabscience; Abcam ENZ-769; ABIN7400042; PKSH033450
T1 sequence (P08253 110-660): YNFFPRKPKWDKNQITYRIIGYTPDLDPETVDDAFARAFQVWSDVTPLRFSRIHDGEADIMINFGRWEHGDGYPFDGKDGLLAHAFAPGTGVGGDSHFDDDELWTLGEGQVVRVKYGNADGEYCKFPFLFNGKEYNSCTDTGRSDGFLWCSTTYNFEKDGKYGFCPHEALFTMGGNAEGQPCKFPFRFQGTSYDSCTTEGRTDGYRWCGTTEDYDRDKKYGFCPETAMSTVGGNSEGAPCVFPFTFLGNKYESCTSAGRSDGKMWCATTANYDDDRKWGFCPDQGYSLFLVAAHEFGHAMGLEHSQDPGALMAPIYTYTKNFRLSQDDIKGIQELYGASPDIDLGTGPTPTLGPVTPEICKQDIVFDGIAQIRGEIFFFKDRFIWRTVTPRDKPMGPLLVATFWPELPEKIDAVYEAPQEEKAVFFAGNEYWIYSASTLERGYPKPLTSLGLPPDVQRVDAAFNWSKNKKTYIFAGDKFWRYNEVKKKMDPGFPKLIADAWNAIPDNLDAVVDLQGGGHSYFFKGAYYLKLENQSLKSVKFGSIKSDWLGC
Procedure: Surface plasmon resonance (SPR) reagents, plates, and the NTA chip were purchased from GE Healthcare Life Sciences, now Cytiva (Marlborough, MA, USA). Measurements were performed using the Biacore 8000 SPR System (Marlborough, MA. USA). The running buffer used for protein immobilization and peptide binding consisted of 20 mM Tris, 150 mM NaCl, […] and 0.0005% Tween-20, adjusted to pH 7.4. MMP-2 and NRP-1 were immobilized onto the NTA chip at 15 nM and 25 nM concentration, respectively. Peptides were injected over the immobilized proteins using two-fold serial dilutions from 500 µM to 3.90 µM. Three experiments with four replicates of each were performed. The SPR response curves generated from the Biacore Insight Evaluation Software were fitted to a steady-state affinity model to obtain an equilibrium dissociation constant (KD) for each peptide — protein interaction.

GBM cells = conditions: read-out: IC50, inhibition of migration of GBM cells; cited from earlier work
From the text: Ctx (Fig 2) is a 36-residue polypeptide from the scorpion Leiurus quinquestriatus. Ctx contains 8 cysteinyl residues, forming 4 disulfide bridges which help to stabilize its three-dimensional structure. […] However, conflicting data on the effects of Ctx on the glioma-specific chloride channel makes it difficu ...

In the case of Chlorotoxin [Ctx], the “binding to MMP-2 by SPR” value (MMP-2) is given as “did not bind” and the IC50 (GBM cells) is given as 184 nM.
